“Also recorded” adds a separate entry of the source. Like-named read-outs stand apart in the source and are kept apart here.
How the values were obtained:
rat PPARα = biological target: T1, rat PPARα (Rattus norvegicus, UniProt P37230); experiment: GAL4-PPAR chimera transactivation assay in CV-1 cells at 10% or 0.1% serum (Example 4); assay type: cell-based; conditions: read-out: GAL4-chimera (rat) EC50 (μM) hPPARα
T1 construct: expressed in transfected cells; host or cells: CV-1
T1 sequence (P37230 239-466 limits assumed): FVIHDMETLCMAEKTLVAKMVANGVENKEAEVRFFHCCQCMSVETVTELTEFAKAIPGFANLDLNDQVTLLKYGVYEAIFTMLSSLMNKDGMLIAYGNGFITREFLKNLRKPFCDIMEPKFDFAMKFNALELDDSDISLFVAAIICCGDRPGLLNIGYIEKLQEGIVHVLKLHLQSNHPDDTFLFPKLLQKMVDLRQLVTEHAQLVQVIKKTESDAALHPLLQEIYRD

rat PPARδ = biological target: T2, rat PPARδ (Rattus norvegicus, UniProt Q62879); experiment: as above; assay type: cell-based; conditions: read-out: GAL4-chimera (rat) EC50 (μM) hPPARδ
T2 construct: expressed in transfected cells; host or cells: CV-1
T2 sequence (Q62879 139-440 limits assumed): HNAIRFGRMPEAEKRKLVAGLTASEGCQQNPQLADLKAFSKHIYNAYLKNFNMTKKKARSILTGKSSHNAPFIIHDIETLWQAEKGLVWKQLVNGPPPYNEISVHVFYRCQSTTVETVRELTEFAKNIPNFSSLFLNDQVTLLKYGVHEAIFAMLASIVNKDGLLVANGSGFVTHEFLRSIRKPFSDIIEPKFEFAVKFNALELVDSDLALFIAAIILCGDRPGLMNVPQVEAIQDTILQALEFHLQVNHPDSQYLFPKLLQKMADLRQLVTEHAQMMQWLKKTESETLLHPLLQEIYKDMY
Procedure: Assays were performed in triplicate for GAL4-chimeras. Experiments were repeated at least three times.
The EC50 were calculated as previously described.
The transactivation activities of the compound I.1 and GW501516 are measured in rat and mouse transactivation assays at 10% and 0.1% serum (Tables 11 and 12).

[1] = Oral glucose tolerance test after 3 weeks of treatment in WD fed rats; assay type: in vivo, rat; conditions: 6 h fasted, oral glucose 2.5 g/kg after 3 weeks
[2] = Euglycemic-hyperinsulinemic 2 steps clamp with 3H-glucose after 5 weeks of treatment in WD fed rats; assay type: in vivo, rat
Procedure: After 4 weeks of treatment, a catheter was implanted into the femoral vein under isoflurane anaesthesia and a period of 5-6 days was respected for recovery. […] The morning of the clamp procedure, rats were treated and fasted for 6 hours prior to tracer, glucose and insulin infusions. The beginning of the clamp procedure was performed in the middle of the dark cycle.
The euglycemic hyperinsulinemic 2 steps insulin clamp was performed using 0.2 U/kg/h and 0.8 U/kg/h insulin infusion associated with 3H-glucose infusion. We then assessed:
During the clamp procedure, a bolus (30 μCi) of D-[3-3H]glucose was first injected followed by 4 μCi/min/kg infusion rate during all the experiment to ensure a detectable plasma D[3-3H]glucose enrichment. A bolus of insulin (100 mU) was first injected, and insulin was then infused at a rate of 0.2 U/kg/h for the first 2 hours and 0.8 U/kg/h from 120 minutes to 210 minutes.
Throughout the infusion, glycaemia was assessed with a blood glucose meter from the tip of the tail vein when needed. Euglycemia was maintained by periodically (every 10 minutes) adjusting a variable infusion of 30% glucose. Plasma glucose concentrations and D-[3-3H]glucose specific activity were determined during stable phase in 10 μl of blood sampled from the tip of the tail vein every 20 minutes from 60 to 120 minutes during the first step and from 150 to 210 minutes during the second step.
For glucose turnover measurements, D-[3-3H]glucose enrichments were determined from total blood after deproteinization by a Zn(OH)2 precipitate. Briefly, an aliquot of the supernatant was evaporated to dryness to determine the radioactivity corresponding to D-3-3H. In a second aliquot of the same supernatant, glucose concentration was assessed by the glucose oxidase method (Biomérieux, France).
Calculations for glucose turnover measurements were made from parameters obtained during the infusions in steady-state condition ([…]). Briefly, the D-[3-3H]glucose specific activity was calculated by dividing the D-[3-3H]glucose enrichment by the plasma glucose concentration. The whole body glucose turnover rate was calculated by dividing the rate of D[3-3H]glucose by the D-[3-3H]glucose plasma specific activity. For each rat, the mean values were calculated and averaged with values from rats of the same group. The whole body glycolysis rate was measured by assessing the amount of tritiated water accumulated in the blood during the 3H-glucose infusion and the whole body glycogen synthesis rate was calculated by the difference between the whole body glucose turnover and the whole body glycolysis rate.

[3] = Triglycerides content in the liver after 5 weeks of treatment in WD fed rats (enzymatic-colorimetric method); assay type: in vivo, rat; conditions: pioglitazone 10, GW501516 10, compound I.1 at any used dose
Procedure: (§1) At the end of the clamp procedure (9.5 hours fasting), perirenal, retroperitoneal, epididymal and inguinal fat pads and liver weights were recorded. Blood was collected from cardiac puncture and plasmas were stored at −80° C. for further assays if needed (depending on the radioactive state of samples). Liver triglyceride content was assessed (enzymatic-colorimetric method) as well as liver and adipose tissue TNF-α content (ELISA method).

TNF-α = TNF-α content in liver and epididymal white adipose tissue after 5 weeks of treatment in WD fed rats (ELISA); assay type: in vivo, rat; conditions: metformin 50, GW501516 10, compound I.1 10 mg/kg (alone or +metformin 50 mg/kg)
Procedure: as §1

EC50 (rat PPARα; 0.1% serum): > 10 µM
EC50 (rat PPARα; 10% serum): > 10 µM
EC50 (rat PPARδ; 0.1% serum): 0.118 ± 0.031 µM
EC50 (rat PPARδ; 10% serum): 0.692 ± 0.177 µM
SMILES: Cc1cc(C(=O)CCc2sc(-c3ccc(C(F)(F)F)cc3)nc2C(C)C)ccc1OCC(=O)O [compound I.1, 4-[3-[4-Isopropyl-2-[4-(trifluoromethyl)phenyl]-5-thiazolyl]propionyl]-2-methylphenoxyacetic acid]
Glucose tolerance (OGTT, AUC, glycemia variation) ([1]; compound I.1 3 mg/kg): slight tendency to improve glucose tolerance
Glucose tolerance (OGTT, AUC, glycemia variation) ([1]; pioglitazone 10, metformin 50, GW501516 10, compound I.1 10 mg/kg): significantly improved glucose tolerance
Insulin resistance / insulin sensitizing effect (overall) ([2]; WD fed rats, after 5 weeks, compound I.1 dose not specified (3 and 10 mg/kg groups), pioglitazone 10, metformin 50 mg/kg): improved insulin resistance in a lesser extent than pioglitazone and metformin, but was more effective than GW501516; also recorded: insulin sensitizing effect, less marked than metformin
Whole body glucose oxidation ([2]; WD fed rats, clamp after 5 weeks, metformin 50 mg/kg, compound I.1 dose not specified, alone or associated): tended to increase
Increase of GIR (glucose infusion rate) during the first step ([2]; clamp 0.2 U/kg/h insulin, after 5 weeks, compound I.1 3 mg/kg): 105%
Decrease of HGP (hepatic glucose production) ([2]; clamp 0.2 U/kg/h insulin, compound I.1 3 mg/kg): 22%
Increase of glycolysis ([2]; clamp 0.8 U/kg/h insulin, metformin 50, GW501516 10, compound I.1 10 mg/kg (alone or +metformin 50 mg/kg)): 42%
Triglycerides content in the liver [3]: did not affect; also recorded: did not significantly decrease
Decrease of TNF-α levels in epididymal white adipose tissues (TNF-α): 51%

Reference: US20110092517A1, “Use of PPAR Delta Ligands for the Treatment or Prevention of Inflammation or Energy Metabolism/Production Related Diseases” (Cerenis Therapeutics S.A. & Nippon Chemiphar Co., Ltd., priority 2009, published 2011)
